“And” between values parts separate entries of the source, which are not always exact repeats. Equal values may be shown once. “Also recorded” adds a separate entry of the source. Read-outs that look alike come from different tables or passages of the source. Marks after values point to notes of the source that are not given here.
Columns and labels:
[1] = system: subjects with both diabetic and non-diabetic renal disease; test: Preliminary unpublished observations: microalbuminuria under supramaximal ARB doses; type: in vivo, human
Text: Strategies to enhance blockade of the tissue RAAS may result in greater renoprotective effects, by further reducing intraglomerular hydrostatic pressure and glomerular hypertrophy, and providing additional improvements in glomerular permselectivity. […] Utilizing ARBs rather than ACEI was chosen owing to evidence that ARBs provide enhanced tissue RAAS blockade by prevention of the ACE escape phenomenon and thus more complete blockade of angiotensin II (AII) produced by both ACE and non-ACE pathways.

[2] = system: normotensive patients with IgA nephropathy; conditions: cited from earlier work
hypertensive patients = conditions: cited from earlier work; for BP reductions in comparative short-term trials between ACEI and ARBs: in vivo
[3] = system: patients with heavy proteinuria (>1.5 g/day); test: 24-hour urinary protein excretion with high-dose candesartan cilexetil (Example 1); type: in vivo, human
Method: The optimal doses of ACEIs and/or ARBs for maximal reduction in urinary protein excretion are not known. Moreover, beneficial effects from ARBs, such as tissue protection owing to a more complete blockade of the RAAS, may be independent of blood pressure-lowering by ARBs. This investigation was designed to evaluate whether increasing the dose of candesartan cilexetil, in subjects already on the FDA's maximum recommended daily doses of 32 mg, would induce a further reduction in 24-hour urinary protein excretion in patients with heavy proteinuria (urinary protein excretion >1.5 g/day; mean 4.4±2 g/day).
(§1) Ten older patients (67±10 years; 80% male) with heavy proteinuria (>1.5 g/day) were started on 16 or 32 mg of candesartan cilexetil daily. Several patients had renal biopsies performed. Eight patients had nephrotic syndrome, four of whom had diabetic nephropathy, two had focal sclerosis, one had membranous nephropathy, and one had postinfectious nephropathy. The two other patients had nephrosclerosis, one being extremely severe and associated with moderate interstitial disease. Most of the patients were already receiving multiple medications for optimal BP control which included the following: calcium channel blockers (CCBs, 80%), diuretics (70%), beta blockers (40%), alpha blockers (40%), and ACEI (40%). Additional concurrent medications included lipid-lowering agents, anti-ischemic drugs and hypoglycemic agents. No effort was made to standardize any class of medications other than ARBs, and no other controls, such as sodium restriction, were instituted as patients were treated using standard office practice procedures.
(§2) After 1-2 months of therapy, the dose of candesartan cilexetil was titrated upwards (at 16-32 mg dose increments) to 96 mg/d, while 24-hour urine samples were obtained to measure protein and creatinine. The candesartan doses were increased independently of the need for BP control. Subsequently, the effect of increased doses of candesartan on 24-hour urinary protein and creatinine excretion, BP, serum creatinine and potassium were serially measured.
(§3) Baseline data was utilized either prospectively or from past patient records collected close to the time of the clinical observation period. […] Thus, no statistical analysis was performed but general trends are noted.

AT1 receptor = molecular target: T1, AT1 receptor (Homo sapiens, UniProt P30556); conditions: cited from earlier work
T1 sequence (P30556 1-359): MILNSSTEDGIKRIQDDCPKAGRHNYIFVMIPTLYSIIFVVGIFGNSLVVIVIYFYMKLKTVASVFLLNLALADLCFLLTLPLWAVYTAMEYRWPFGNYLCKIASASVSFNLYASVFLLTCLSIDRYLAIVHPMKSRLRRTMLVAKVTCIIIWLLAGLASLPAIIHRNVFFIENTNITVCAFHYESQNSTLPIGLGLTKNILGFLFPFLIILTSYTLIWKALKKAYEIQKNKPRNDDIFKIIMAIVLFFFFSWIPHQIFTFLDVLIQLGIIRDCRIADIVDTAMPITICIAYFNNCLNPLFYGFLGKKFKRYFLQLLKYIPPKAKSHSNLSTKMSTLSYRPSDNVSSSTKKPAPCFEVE

[4] = system: patients with heavy proteinuria (>1.5 g/day); test: Blood pressure, serum creatinine, serum potassium and tolerability during candesartan dose titration (Example 1); type: in vivo, human
Method: as §1, §2, §3

[5] = system: patients with dilated aortic roots; test: Aortic root size by M-mode echocardiography under ARB therapy (Example 10); type: in vivo, human
Text: Since regression of the aortic root dilatation on echocardiogram was so unusual, a study was undertaken to evaluate other individuals with aortic root dilatation to determine whether aortic root aneurysms or dilatation could be reduced using ARBs. […] In order to evaluate one group of homogeneous subjects, the following were inclusion criteria: (1) same modality of testing to determine the thickness of the aortic root; (2) same instrument; (3) same interpreter of echocardiogram; (4) subjects needed to be on medication (antihypertensive including ARB or ARB if normotensive); (5) at least 9 months of ARB therapy; and (6) the disease was strictly aneurysm, not CAD or CHF. Applying the above inclusion criteria, a group of 15 subjects was selected for analysis. The group included 13 men and 2 women, aged 66.4±13.3 years and weighing 188.8±29.6 pounds. Aortic root sizes were measured using M-mode echocardiography with a leading-edge-to-leading-edge measurement of the maximal distance between the anterior aortic root wall and the posterior aortic root wall, measured at a level immediately above the cusps at end diastole. The standard deviation for intra-observer error was ±2 mm. Interval changes in aortic root size were measured as initial value-most recent value, where a positive resulting value indicated a corresponding decrease in aortic root size over the interval.

tissue ACE = tissue ACE (Homo sapiens, UniProt P12821); conditions: compared with other ACEI (e.g., enalapril); due to lipophilic properties; cited from earlier work
[6] = system: normotensive, proteinuric patients with IgA nephropathy; conditions: increasing dose of lisinopril; cited from earlier work

tissue ACE, sequence (P12821 30-1306): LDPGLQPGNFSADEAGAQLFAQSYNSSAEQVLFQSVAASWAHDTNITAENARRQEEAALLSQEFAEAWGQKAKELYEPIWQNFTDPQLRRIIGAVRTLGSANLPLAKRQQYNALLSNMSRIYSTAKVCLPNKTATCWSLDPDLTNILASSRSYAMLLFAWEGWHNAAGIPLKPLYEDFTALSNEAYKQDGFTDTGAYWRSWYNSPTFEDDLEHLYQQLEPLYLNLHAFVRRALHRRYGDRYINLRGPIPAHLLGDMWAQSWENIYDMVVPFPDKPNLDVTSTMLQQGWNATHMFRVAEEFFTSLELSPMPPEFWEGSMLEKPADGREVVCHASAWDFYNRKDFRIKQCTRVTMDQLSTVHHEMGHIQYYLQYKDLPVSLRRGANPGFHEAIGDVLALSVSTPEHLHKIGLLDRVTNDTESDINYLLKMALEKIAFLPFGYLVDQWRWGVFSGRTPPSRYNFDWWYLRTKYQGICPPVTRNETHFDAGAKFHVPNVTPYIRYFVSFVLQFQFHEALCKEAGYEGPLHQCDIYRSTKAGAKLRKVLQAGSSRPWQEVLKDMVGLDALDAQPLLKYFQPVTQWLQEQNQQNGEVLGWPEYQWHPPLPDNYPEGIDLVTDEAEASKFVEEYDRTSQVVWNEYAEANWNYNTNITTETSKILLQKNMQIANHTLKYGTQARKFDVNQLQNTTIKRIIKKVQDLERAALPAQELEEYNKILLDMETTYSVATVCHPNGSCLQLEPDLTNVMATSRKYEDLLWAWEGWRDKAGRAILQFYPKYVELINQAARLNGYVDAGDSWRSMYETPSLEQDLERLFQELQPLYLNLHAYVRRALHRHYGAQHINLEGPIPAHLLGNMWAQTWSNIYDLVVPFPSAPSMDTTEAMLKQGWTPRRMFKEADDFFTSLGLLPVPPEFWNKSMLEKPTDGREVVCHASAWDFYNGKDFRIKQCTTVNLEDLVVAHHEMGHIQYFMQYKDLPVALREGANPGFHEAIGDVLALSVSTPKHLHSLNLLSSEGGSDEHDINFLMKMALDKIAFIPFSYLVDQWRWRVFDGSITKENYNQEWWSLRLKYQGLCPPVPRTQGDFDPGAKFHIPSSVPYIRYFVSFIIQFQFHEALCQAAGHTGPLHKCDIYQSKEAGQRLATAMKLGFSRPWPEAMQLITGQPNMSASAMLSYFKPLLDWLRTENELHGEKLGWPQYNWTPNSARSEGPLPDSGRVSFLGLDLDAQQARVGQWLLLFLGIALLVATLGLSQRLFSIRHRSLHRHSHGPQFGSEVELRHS

CCCCc1nc(Cl)c(CO)n1Cc1ccc(-c2ccccc2-c2nn[nH]n2)cc1 [losartan]
Effect on microalbuminuria [1]: additional reductions in microalbuminuria | Change of urinary protein excretion on monotherapy ([2]; either drug as monotherapy, ARB = losartan): −27% | Reduction of urinary protein excretion on combined ACEI and ARB therapy ([2]; losartan 50 mg/day added to a moderate dose of an ACEI): 69% | BP reductions compared with ACEI (hypertensive patients; a few studies): smaller BP reductions | BP reductions in comparative short-term trials between ACEI and ARBs (hypertensive patients): equivalent BP reductions | Antihypertensive response to add-on therapy (hypertensive patients; losartan 25-50 mg/d added to existing ramipril 2.5-5 mg/d, four-week study of 30 hypertensives): enhanced | Protein Excretion (24-hour urinary protein excretion rate) ([3]; losartan 50 mg, patient 6): 1.1^+ g/day | Type of antagonism at the AT1 receptor (AT1 receptor): surmountable | Type of antagonism at the AT1 receptor (AT1 receptor; listed as Losartan): competitive antagonist

CCOC(=O)[C@H](CCc1ccccc1)N[C@@H](C)C(=O)N1[C@H](C(=O)O)C[C@@H]2CCC[C@@H]21 [ramipril]
Additive antihypertensive response to add-on therapy (hypertensive patients; ACEI (ramipril) added to existing ARB (losartan) therapy): small and not significant

CCOc1nc2cccc(C(=O)OC(C)OC(=O)OC3CCCCC3)c2n1Cc1ccc(-c2ccccc2-c2nnn[nH]2)cc1 (stereo not drawn) [Candesartan cilexetil, candesartan cilexetil]
Safety and tolerability ([4]; doses between 32 and 96 mg): safe, well-tolerated | Protein Excretion, Mean ([3]; 16 mg/day column, mean of N=4 (includes one losartan 50 mg and one irbesartan 150 mg value)): 2.8 g/day | Protein Excretion, Mean ([3]; 32 mg/day column, mean of N=10 (includes one irbesartan 300 mg value)): 2.7 g/day | Protein Excretion (24-hour urinary protein excretion rate) ([3]; candesartan cilexetil 16 mg/day, individual patients): 3.2 g/day and 6.4 g/day | Protein Excretion (24-hour urinary protein excretion rate) ([3]; candesartan cilexetil 32 mg/day, individual patients): 1.1 g/day and 2.0 g/day and 0.8 g/day and 4.9 g/day and 3.3 g/day and 2.7 g/day and 6.4 g/day and 4.6 g/day and 1.2 g/day | Protein Excretion (24-hour urinary protein excretion rate) ([3]; candesartan cilexetil 48 mg/day, individual patients): 0.9 g/day and 0.2 g/day (2×) and 2.6 g/day and 1.7 g/day and 2.9 g/day and 5.8 g/day and 1.2 g/day | Protein Excretion, Mean ([3]; candesartan cilexetil 48 mg/day, mean of N=8): 1.9 g/day | Protein Excretion (24-hour urinary protein excretion rate) ([3]; candesartan cilexetil 64 mg/day, individual patients): 1.7 g/day and 1.1 g/day and 0.4 g/day and 0.2 g/day and 1.3 g/day and 3.0 g/day and 4.7 g/day and 0.7 g/day | Protein Excretion, Mean ([3]; candesartan cilexetil 64 mg/day, mean of N=8): 1.6 g/day | Protein Excretion (24-hour urinary protein excretion rate) ([3]; candesartan cilexetil 80 mg/day, individual patients): 0.9 g/day and 0.5 g/day and 0.3 g/day and 1.6 g/day and 3.4 g/day and 1.4 g/day and 2.4 g/day and 0.6 g/day | Protein Excretion, Mean ([3]; candesartan cilexetil 80 mg/day, mean of N=8): 1.4 g/day | Protein Excretion (24-hour urinary protein excretion rate) ([3]; candesartan cilexetil 96 mg/day, individual patients): 0.6 g/day and 0.2 g/day and 1.8 g/day and 2.3 g/day and 0.7 g/day | Protein Excretion, Mean ([3]; candesartan cilexetil 96 mg/day, mean of N=5): 1.1 g/day | Effect on 24-hour urinary protein excretion beyond the recommended maximum dose ([3]; dose extended beyond 32 mg/d): progressive reductions in 24-hour urinary protein excretion; also recorded: further reductions in urinary protein excretion in all subjects

CCCc1nc2c(C)cc(-c3nc4ccccc4n3C)cc2n1Cc1ccc(-c2ccccc2C(=O)O)cc1 [telmisartan]
BP reductions in comparative short-term trials between ACEI and ARBs (hypertensive patients): equivalent BP reductions

CCOc1nc2cccc(C(=O)O)c2n1Cc1ccc(-c2ccccc2-c2nnn[nH]2)cc1 [candesartan]
Tolerability ([4]; 96 mg/d): well tolerated, metabolically neutral | Increase in serum creatinine ([4]; at the higher doses of candesartan, attributable primarily to two of the ten patients): 0.5 to 0.7 mg/dL | Serum potassium ([4]; throughout the dosing range of candesartan): 4.3 to 4.5 mmol/L | Interval change in aortic root size (initial value minus most recent value) ([5]; one hypertensive subject, 128 mg/d): 8 mm | Interval change in aortic root size (initial value minus most recent value) ([5]; one normotensive subject, 64 mg/d): 12 mm | Decrease in aortic root size ([5]; ten of 15 subjects, at least 9 months of ARB therapy): more than 2 mm

CCCCC1=NC2(CCCC2)C(=O)N1Cc1ccc(-c2ccccc2-c2nnn[nH]2)cc1 [irbesartan]
Effect on microalbuminuria [1]: additional reductions in microalbuminuria | BP reductions in comparative short-term trials between ACEI and ARBs (hypertensive patients): equivalent BP reductions | Protein Excretion (24-hour urinary protein excretion rate) ([3]; irbesartan 150 mg, patient 7): 0.5** g/day | Protein Excretion (24-hour urinary protein excretion rate) ([3]; irbesartan 300 mg, patient 6): 0.4^§ g/day | Affinity for the AT1 receptor (AT1 receptor): high affinity | Type of antagonism at the AT1 receptor (AT1 receptor): insurmountable

CCCCC(=O)N(Cc1ccc(-c2ccccc2-c2nnn[nH]2)cc1)[C@H](C(=O)O)C(C)C [valsartan]
Effect on microalbuminuria [1]: additional reductions in microalbuminuria | BP reductions in comparative short-term trials between ACEI and ARBs (hypertensive patients): equivalent BP reductions

CCCCc1ncc(/C=C(\Cc2cccs2)C(=O)O)n1Cc1ccc(C(=O)O)cc1 [eprosartan]
Affinity for the AT1 receptor (AT1 receptor): lower affinity | Type of antagonism at the AT1 receptor (AT1 receptor): surmountable

CCOC(=O)[C@H](CCc1ccccc1)N[C@@H](C)C(=O)N1Cc2ccccc2C[C@H]1C(=O)O [quinapril]
Ability to block tissue ACE activity (tissue ACE): better able to block tissue ACE activity

CCOC(=O)[C@H](CCc1ccccc1)N[C@@H](C)C(=O)N1CCC[C@H]1C(=O)O [enalapril]
BP reductions in comparative short-term trials between ACEI and ARBs (hypertensive patients): equivalent BP reductions

NCCCC[C@H](N[C@@H](CCc1ccccc1)C(=O)O)C(=O)N1CCC[C@H]1C(=O)O [lisinopril]
BP reductions in comparative short-term trials between ACEI and ARBs (hypertensive patients): equivalent BP reductions | Renal protective effect of increasing the dose [6]: additional renal protective effects, independent of any BP reductions

— patent US20030078190A1 (priority 2001, published 2003)
